The source of these data is patent publication US20230167127A1, “COMPOUNDS AND THEIR USE IN THE TREATMENT OF BACTERIAL INFECTION” (Hoffmann-La Roche Inc., priority 2020, published 2023).

This test has as its system Escherichia coli ATCC 25922. Kind of test: 50% growth inhibitory concentration (IC50) determination, Iso-Sensitest broth dilution. To be noted: strain Escherichia coli ATCC 25922, 10-point broth dilution, optical density at 600 nm over 16 h, read-out: Escherichia coli growth inhibition IC50. Format: cell-based. A digest of the protocol:
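Growth was tracked as optical density at 600 nm every 20 minutes for 16 h at 35±2° C. Compounds from DMSO stocks were serially diluted twofold over 10 points (e.g. 50–0.097 μM final) in Iso-Sensitest broth. Inhibition computed in log-phase growth to give IC50.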

The mark [1] stands for this setting: Escherichia coli, ATCC25922, 16 h.

pIC50: −log10 of the molar value. Where two headings read alike, the source gives them in different places.

In the case of `Cc1cnc(-c2nc(OCC3(N)CC3)c(C)c3c2CC(CNCCC2CN(c4ccc5c(n4)NC(=O)CO5)C(=O)O2)C3)s1` (centres unmarked) [Example 216, 6-[5-[2-[[3-[(1-aminocyclopropyl)methoxy]-4-methyl-1-(5-methyl-1,3-thiazol-2-yl)-6,7-dihydro-5H-cyclopenta[c]pyridin-6-yl]methylamino]ethyl]-2-oxo-1,3-oxazolidin-3-yl]-4H-pyrido[3,2-b][1,4]oxazin-3-one], the pIC50 under setting [1] was 6.68.

Take `N#Cc1cccc2c1CC(CNCCC1OC(=O)N(c3ccc4c(n3)NC(=O)CO4)C1CN)C2` (racemic) [Example 148, 2-[[2-[rac-4,5-cis-4-(aminomethyl)-2-oxo-3-(3-oxo-4H-pyrido[3,2-b][1,4]oxazin-6-yl)-1,3-oxazolidin-5-yl]ethylamino]methyl]-2,3-dihydro-1H-indene-4-carbonitrile; formic acid]: under setting [1], the pIC50 is 6.22.

As for `Cc1ncc(F)c2c1CC(NC(C)CCC1CN(c3cnc4c(n3)NC(=O)CO4)C(=O)O1)C2` (single isomer, unassigned; isomer b) [Example 334, 6-[5-[3-[(4-fluoro-1-methyl-6,7-dihydro-5H-cyclopenta[c]pyridin-6-yl)amino]butyl]-2-oxo-1,3-oxazolidin-3-yl-4H-pyrazino[2,3-b][1,4]oxazin-3-one, Isomer B], the pIC50 was 6.49.

Consider `Cc1ncc(F)c2c1CC(NCC(O)CC1CN(c3cnc4c(n3)NC(=O)CO4)C(=O)O1)C2` (single isomer, unassigned; isomer d) [Example 316, 6-[2-Oxo-5-[3-[(4-fluoro-1-methyl-6,7-dihydro-5H-cyclopenta[c]pyridin-6-yl)amino]-2-hydroxypropyl]-1,3-oxazolidin-3-yl]-4H-pyrazino[2,3-b][1,4]oxazin-3-one; formic acid, Isomer D], for which the pIC50 was 6.02.

For the compound `Cc1ncc(F)c2c1CC(CN[C@H]1C[C@@H](C3CN(c4cnc5c(n4)NC(=O)CO5)C(=O)O3)C1)C2` (some centres unmarked) [Example 362], the pIC50 under setting [1] is 6.80.

Turning to `N#Cc1cccc2c1CC(CN[C@H]1C[C@H](C3CN(c4ccc5c(n4)NC(=O)CO5)C(=O)O3)C1)C2` (stereo partly drawn) [Example 97, 2-[[[trans-3-[2-oxo-3-(3-oxo-4H-pyrido[3,2-b][1,4]oxazin-6-yl)-1,3-oxazolidin-5-yl]cyclobutyl]amino]methyl]-2,3-dihydro-1H-indene-4-carbonitrile], the pIC50 under setting [1] was 6.73.

Regarding `N#CCOc1cc(F)c2c(c1)CC(CNCCC1CN(c3ccc4c(n3)NC(=O)CO4)C(=O)O1)C2` (centres unmarked) [Example 73, 2-[[7-fluoro-2-[[2-[2-oxo-3-(3-oxo-4H-pyrido[3,2-b][1,4]oxazin-6-yl)-1,3-oxazolidin-5-yl]ethylamino]methyl]-2,3-dihydro-1H-inden-5-yl]oxy]acetonitrile; formic acid], the pIC50 under setting [1] was > 7.01.

For the compound `NC1c2cccc(Cl)c2CC1CNCCc1nn(-c2cnc3c(n2)NC(=O)CO3)c(=O)o1` (racemic) [Example 337, 6-[2-oxo-5-[2-[[rac-1,2-trans-1-amino-4-chloro-2,3-dihydro-1H-inden-2-yl]methylamino]ethyl]-1,3,4-oxadiazol-3-yl]-4H-pyrazino[2,3-b][1,4]oxazin-3-one; formic acid], the negative logarithm of the IC50 (pIC50) under setting [1] is 5.97.

For the compound `N#Cc1cccc2c1CC(CNC[C@@H](O)[C@H]1CN(c3ccc4c(c3)NC(=O)CO4)C(=O)O1)C2` (stereo partly drawn) [Example 61, 2-[[[(2R)-2-hydroxy-2-[(5R)-2-oxo-3-(3-oxo-4H-1,4-benzoxazin-6-yl)-1,3-oxazolidin-5-yl]ethyl]amino]methyl]-2,3-dihydro-1H-indene-4-carbonitrile; formic acid], the pIC50 under setting [1] was 6.79.

As for `CCn1cc(C(=O)O)c(=O)c2cc(F)c3c(c21)CC(CNCCC1CN(c2ccc4c(n2)NC(=O)CO4)C(=O)O1)C3` (centres unmarked) [Example 239, 1-Ethyl-6-fluoro-4-oxo-8-[[2-[2-oxo-3-(3-oxo-4H-pyrido[3,2-b][1,4]oxazin-6-yl)-1,3-oxazolidin-5-yl]ethylamino]methyl]-8,9-dihydro-7H-cyclopenta[h]quinoline-3-carboxylic acid], under setting [1], the pIC50 is > 7.01.

With `COc1cc2c(c(Cl)n1)CC(CNCCC1CN(c3cnc4c(n3)NC(=O)CO4)C(=O)O1)C2` (centres unmarked) [Example 50, 6-[5-[2-[(1-chloro-3-methoxy-6,7-dihydro-5H-cyclopenta[c]pyridin-6-yl)methylamino]ethyl]-2-oxo-1,3-oxazolidin-3-yl]-4H-pyrazino[2,3-b][1,4]oxazin-3-one], the pIC50 under setting [1] was > 7.01.

As to `Cc1nccc2c1CC(CNCCc1cn(-c3cnc4c(n3)NC(=O)CO4)c(=O)o1)C2` (centres unmarked) [Example 371, 6-[5-[2-[(1-methyl-6,7-dihydro-5H-cyclopenta[c]pyridin-6-yl)methylamino]ethyl]-2-oxo-1,3-oxazol-3-yl]-4H-pyrazino[2,3-b][1,4]oxazin-3-one], under setting [1], the pIC50 was > 7.01.

As for `O=C1COc2ncc(N3CC(CCNCC4Cc5cc(OCC(=O)N6CCC6)cc(F)c5C4)OC3=O)nc2N1` (centres unmarked) [Example 307, 6-[5-[2-[[6-[2-(azetidin-1-yl)-2-oxoethoxy]-4-fluoro-2,3-dihydro-1H-inden-2-yl]methylamino]ethyl]-2-oxo-1,3-oxazolidin-3-yl]-4H-pyrazino[2,3-b][1,4]oxazin-3-one; formic acid], the negative logarithm of the IC50 (pIC50) under setting [1] was 6.44.

As for `N#Cc1cc(OC[C@H](N)CO)cc2c1CC(CNCCC1CN(c3ccc4c(n3)NC(=O)CO4)C(=O)O1)C2` (stereo partly drawn) [Example 236, 6-[(2R)-2-Amino-3-hydroxypropoxy]-2-[[2-[2-oxo-3-(3-oxo-4H-pyrido[3,2-b][1,4]oxazin-6-yl)-1,3-oxazolidin-5-yl]ethylamino]methyl]-2,3-dihydro-1H-indene-4-carbonitrile], the pIC50 under setting [1] was > 7.01.

For `N#Cc1cccc2c1CC(CNCCC1CN(c3ccc4c(c3)NC(=O)CO4)C(=O)O1)C2` (centres unmarked) [Example 18, 2-[[2-[2-oxo-3-(3-oxo-4H-1,4-benzoxazin-6-yl)-1,3-oxazolidin-5-yl]ethylamino]methyl]-2,3-dihydro-1H-indene-4-carbonitrile; formic acid], the pIC50 under setting [1] is > 7.01.

Turning to `O=C1COc2ccc(N3CC(CNC4Cc5ccc(Cl)cc5C4)OC3=O)nc2N1` (centres unmarked) [Example 25, 6-[5-[[(5-chloro-2,3-dihydro-1H-inden-2-yl)amino]methyl]-2-oxo-1,3-oxazolidin-3-yl]-4H-pyrido[3,2-b] [1,4]oxazin-3-one], under setting [1], the pIC50 is 5.39.

For `O=C1COc2ncc(N3CC(CCNCC4Cc5c(F)cnc(-c6cnc[nH]6)c5C4)OC3=O)nc2N1` (centres unmarked) [Example 433, 6-[5-[2-[[4-Fluoro-1-(1H-imidazol-5-yl)-6,7-dihydro-5H-cyclopenta[c]pyridin-6-yl]methylamino]ethyl]-2-oxo-1,3-oxazolidin-3-yl]-4H-pyrazino[2,3-b][1,4]oxazin-3-one], the pIC50 under setting [1] is > 7.01.

Regarding `NC1(COc2cc(F)c3c(c2F)CC(CN2CCC4(CC2)CN(c2cnc5c(n2)NC(=O)CO5)C(=O)O4)C3)CC1` (centres unmarked) [Example 410, 6-[8-[[5-[(1-aminocyclopropyl)methoxy]-4,7-difluoro-2,3-dihydro-1H-inden-2-yl]methyl]-2-oxo-1-oxa-3,8-diazaspiro[4.5]decan-3-yl]-4H-pyrazino[2,3-b][1,4]oxazin-3-one; formic acid], the pIC50 under setting [1] was > 7.01.

For `N#Cc1cc(OCC(N)=O)cc2c1CC(CNCCC1CN(c3cnc4c(n3)NC(=O)CO4)C(=O)O1)C2` (centres unmarked) [Example 414, 2-[[7-cyano-2-[[2-[2-oxo-3-(3-oxo-4H-pyrazino[2,3-b][1,4]oxazin-6-yl)-1,3-oxazolidin-5-yl]ethylamino]methyl]-2,3-dihydro-1H-inden-5-yl]oxy]acetamide], the pIC50 under setting [1] is 6.90.

As to `O=C1COc2ncc(N3CC(CCNCC4Cc5cc(OCCn6cncn6)cc(F)c5C4)OC3=O)nc2N1` (centres unmarked) [Example 296, 6-[5-[2-[[4-fluoro-6-[2-(l,2,4-triazol-1-yl)ethoxy]-2,3-dihydro-1H-inden-2-yl]methylamino]ethyl]-2-oxo-1,3-oxazolidin-3-yl]-4H-pyrazino[2,3-b][1,4]oxazin-3-one; formic acid], the pIC50 under setting [1] is 6.42.

With `Cc1nc(OCC2(N)CC2)c(C#N)c2c1CC(CNCCC1CN(c3ccc4c(n3)NC(=O)CO4)C(=O)O1)C2` (centres unmarked) [Example 214, 3-[(1-aminocyclopropyl)methoxy]-1-methyl-6-[[2-[2-oxo-3-(3-oxo-4H-pyrido[3,2-b][1,4]oxazin-6-yl)-1,3-oxazolidin-5-yl]ethylamino]methyl]-6,7-dihydro-5H-cyclopenta[c]pyridine-4-carbonitrile], the pIC50 under setting [1] was > 7.01.

Take `N#Cc1cccc2c1CC(NCCCC1CN(c3ccc4c(n3)NC(=O)CO4)C(=O)O1)C2` (centres unmarked) [Example 13, 2-[3-[2-oxo-3-(3-oxo-4H-pyrido[3,2-b] [1,4]oxazin-6-yl)-1,3-oxazolidin-5-yl]propylamino]-2,3-dihydro-1H-indene-4-carbonitrile; formic acid]: the pIC50 under setting [1] was > 7.01.

As to `Cc1ncc(F)c2c1C[C@H](CNCC[C@@H]1CN(c3cnc4c(n3)NC(=O)CO4)C(=O)O1)C2` [Example 430], under setting [1], the pIC50 was > 7.01.

As to `Cc1ccnc2c1CC(CNCCC1CN(c3ccc4c(n3)NC(=O)CO4)C(=O)O1)C2` (centres unmarked) [Example 89, 6-[5-[2-[(4-methyl-6,7-dihydro-5H-cyclopenta[b]pyridin-6-yl)methylamino]ethyl]-2-oxo-1,3-oxazolidin-3-yl]-4H-pyrido[3,2-b][1,4]oxazin-3-one], the pIC50 under setting [1] was 6.52.

In the case of `Cc1nccc2c1CC(CN1CCC3(CC1)CN(c1cnc4c(n1)NC(=O)CO4)C(=O)O3)C2` (centres unmarked) [Example 374, 6-[8-[(1-methyl-6,7-dihydro-5H-cyclopenta[c]pyridin-6-yl)methyl]-2-oxo-1-oxa-3,8-diazaspiro[4.5]decan-3-yl]-4H-pyrazino[2,3-b][1,4]oxazin-3-one], under setting [1], the negative-log IC50 (pIC50) was 6.68.

With `NCCOc1cc(Cl)c2c(c1)CC(NCCCC1CN(c3ccc4c(n3)NC(=O)CO4)C(=O)O1)C2` (centres unmarked) [Example 179, 6-[5-[3-[[6-(2-aminoethoxy)-4-chloro-2,3-dihydro-1H-inden-2-yl]amino]propyl]-2-oxo-1,3-oxazolidin-3-yl]-4H-pyrido[3,2-b][1,4]oxazin-3-one], the pIC50 under setting [1] is 6.99.

For orientation: pIC50 means the IC50 on a negative log10 scale, so that one unit is a factor of ten.
